Experimental findings from US20040198811A1 (H. Lundbeck A/S, priority 2001, published 2004) are described below.

Type in all cases: in vivo
The test system of assay [1] is primary care patients with major depression disorder. The experiment in a line: 8-week, double-blind, randomised, placebo-controlled, flexible-dose clinical study. The text has this:
(§1) This has i.a. been found in the Chronic Mild Stress model (Willner P., Psychopharmachology 1997, 134, 319-329).
A total of 471 patients were randomised into the study. The all-patient-treated set comprised 469 patients and the full-analysis set comprised 468 patients.
There was an approximately 3 to 1 ratio of women to men in each treatment group, and almost all patients were Caucasian. The mean age was 43 years (SD 11). At baseline, the mean MADRS total score was approximately 29 for the treatment group, which signifies moderate to severely ill patients.

The nature of assay [2]: pharmacological and clinical studies (effect of R-citalopram, potency versus racemate). The source says: This may be shown in functional in-vivo pharmacological models and studies of 5-HT-reuptake effect and or in behaviour models, for example depression models.
For the next assay, the system named is animal models. The experiment in a line: Chronic Mild Stress model.
Excerpt: as §1

Assay [3] in a line: fixed dose studies (MADRS rating scale and Clinical Global Impression). Particulars: escitalopram in a dose of 10 mg.
Setting [4] is: Week 4, last observation carried forward, 10 mg escitalopram, 20 mg citalopram.

Take `CN(C)CCCC1(c2ccc(F)cc2)OCc2cc(C#N)ccc21` (racemic) [citalopram, reference compound]: the “adjusted mean change in MADRS total score versus placebo” value in assay [1] (setting [4]) amounted to 1.5 points.

In the case of `CN(C)CCC[C@]1(c2ccc(F)cc2)OCc2cc(C#N)ccc21` [R-citalopram, reference compound], in assay [2] (in vivo), the “impact on the effect of escitalopram” value is recorded as “negative impact”.

Regarding “(S)-1-[3-(dimethylamino)propyl]-1-4-fluorophenyl)-1,3-dihydro-5-isobenzofurancarbonitdile [escitalopram]”, in the assay on animal models, the speed of response entry is listed as “faster response than citalopram-racemate”. Moreover, the onset of effect entry in assay [1] (10 mg escitalopram, 20 mg citalopram, versus placebo) is “showed effects after one week”. In addition, the “therapeutic effect versus placebo on adjusted mean change in MADRS total score” value in assay [1] (Week 1 (p=0.023) to Week 4, observed cases) is given as “significantly superior therapeutic effect”. For the same molecule, the “CGI improvement and severity subscale versus placebo” value in assay [1] (Week 4, last observation carried forward) was “statistically significantly superior to placebo”; in assay [1] (from Week 1 onwards, 4-week period, observed cases) it was “significantly superior to placebo”. In addition, the “adjusted mean change in MADRS total score versus placebo” value in assay [1] (setting [4]) amounted to 2.7 points. For the same molecule, the “effect as determined by MADRS rating scale and Clinical Global Impression (severity and improvement)” value in assay [3] is given as “at least same effect as citalopram in a dose of 40 mg”. Besides, the “potency relative to the racemate” value in assay [2] (pharmacological and clinical studies) was “substantially more than two times as potent as the racemate”.
